The text below walks through data of patent US9365499B2, “9-aminomethyl substituted tetracycline compounds” (KBP Biosciences Co., Ltd., priority 2011, dated 2016).

The subject of data set [1] is Acinetobacter baumannii. Briefly: antibacterial activity in vitro, agar dilution method. It counts as cell-based. The source says: (§1) The antibacterial spectrum and in vitro antibacterial activity of the compound of the present invention
(§2) Experimental method: the agar dilution method, with reference to Clinical And Laboratory Standards Institute. Methods for Dilution Antimicrobial Susceptibility Tests for Bacteria That Grow Aerobically; Approved Standard-Seventh Edition. CLSI Document M7-A7. Vol 26, no. 2, Wayne, Pa.: Clinical and Laboratory Standards Institute, 2006.
(§3) Wherein MIC represents the minimum inhibitory concentration, MIC90 represents the 90% inhibitory concentration.

Data set [2] concerns Escherichia coli. The data set is described as above. The data set is classed as cell-based.
From the text: as §1, §2, §3

Data set [3] deals with Methicillin-resistant Staphylococcus aureus (MRSA). Described as above. It counts as cell-based.
From the text: as §1, §2, §3

The test system of data set [4] is Klebsiella pneumoniae. The description is as above. It counts as cell-based.
From the text: as §1, §2, §3

In data set [5] the test system is Streptococcus pyogenes. The data set is described as above. It counts as cell-based. To be noted: Table 2.
From the text: as §1, §2, §3

Data set [6] relates to Methicillin-resistant Staphycoccus epidermidis (MRSE). The data set is described as above. It counts as cell-based. To be noted: Staphylococcus epidermidis, Table 2.
From the text: as §1, §2, §3

Data set [7] can be described thus: in vivo pharmacokinetics experiment in rats (Test Example 2). To be noted: male, SD, rat, plasma. Here is the method: Test animals: male SD rats, weighing 230-250 g, purchased from Shanghai SLAC Laboratory Animals Co., Ltd., Certificate of Conformity: SCXK (SH) 2007-0005 22045; Six rats were tested for each compound.
Test substances: Compound 2 of the present invention, prepared in accordance with the method of Example 3; dissolved in physiological saline.
Internal standard substance: The acetonitrile solution of 50 ng/ml KBP-5747 was used as an internal standard solution in the measurement of Compound 2.
Administration of Compound 2 of the present invention: intravenous bolus injection (iv), dose: 5 mg/kg, administrating volume: 5 mL/kg; gavage (po), dose: 5 mg/kg, administrating volume: 5 mL/kg. Prior to administration help but water fasting for 12 hours, 4 hours after administration to food.
iv blood sampling time point: denoted by 0 min before administration, 5 min, 15 min, 30 min, 1 h, 2 h, 4 h, 8 h, 24 h, 30 h, 48 h after administration
po blood sampling time point: denoted by 0 min before administration, 5 min, 15 min, 30 min, 1 h, 2 h, 4 h, 8 h, 24 h, 30 h, 48 h after administration
Each time point to take around 150 μl whole blood, centrifugated at 2000×g at 4° C. for 5 minutes in a low-temperature high-speed centrifuge to separate plasma, the resulting plasma frozen was at −70° C. in a refrigerator.
Plasma samples analysis: 30 μl of plasma was taken and added 100 μl of internal standard solution, subjected to vortex at 14,000 rev/min for 5 minutes, then to centrifugation at 12,000 rpm/min for 5 minutes. The supernatant was taken and analyzed using LC-MS/MS.
Formula Absolute Bioavailability F%=[AUC]INF (po)×Dose(iv)/[AUC]INF (iv)×Dose(po)

Data set [8] relates to Hemophilus influenzae. Put plainly: antibacterial activity in vitro, agar dilution method. It counts as cell-based. To be noted: Haemophilus influenzae; Table 5; MIC90 = 90% inhibitory concentration.
From the text: as §1, §2, §3
In general terms: Agar dilution tests growth on a series of plates holding different concentrations.

For data set [9], the system named is Enterococcus faecalis. The data set is described as above. The data set is classed as cell-based. The conditions noted are these: Table 4.
From the text: as §1, §2, §3

Data set [10] has as its system Acinetobacter calcoaceticus. The data set is described as above. It counts as cell-based. The conditions noted are these: Table 4.
From the text: as §1, §2, §3

The test system of data set [11] is Staphylococcus aureus. The data set is described as above. It counts as cell-based.
From the text: as §1, §2, §3

For data set [12], the system named is Streptococcus constellatus. The data set is described as above. It counts as cell-based. The conditions noted are these: Table 5, MIC90 = 90% inhibitory concentration.
From the text: as §1, §2, §3

For data set [13], the system named is Streptococus agalactiae. The description is as above. It counts as cell-based. The conditions noted are these: Table 4.
From the text: as §1, §2, §3

Data set [14] can be described thus: in vivo. Also noted: species or system male SD rats. To be noted: male, SD, rat, 5 mg/kg. The procedure:
Test animals: male SD rats, weighing 180-280 g, purchased from Beijing Vital River Laboratory Animal Technology Co., Ltd.; animal Certificate of Conformity: SCXK (Beijing) 2006-0009. Six rats were tested for each compound. the compounds of the present invention, prepared in accordance with the methods of above Examples, dissolved in physiological saline. tigecycline, dissolved in physiological saline. Administration of the compounds of the present invention: intravenous bolus injection (iv), dose: 5 mg/kg, administrating volume: 5 mL/kg; gavage (po), dose: 5 mg/kg, administrating volume: 5 mL/kg. Administration of tigecycline: gavage (po), dose: 10 mg/kg, administrating volume: 5 mL/kg. Prior to administration help but water fasting for 16 hours, 4 hours after administration to food. Compound 9: iv blood sampling time point: denoted by 0 min before administration, 5 min, 15 min, 30 min, 1 […] after administration; po blood sampling time point: denoted by 0 min before administration, 5 min, 15 min, 30 min, 1 […] after administration; Compound 20: iv blood sampling time point: 5 min, 15 min, 30 min, 1 […] after administration; po blood sampling time point: 10 min, 30 min, 1 […] after administration; Compound 23: iv blood sampling time point: denoted by 0 min before administration, 5 min, 15 min, 30 min, 1 […] after administration; po blood sampling time point: denoted by 0 min before administration, 5 min, 15 min, 30 min, 1 […] after administration; Tigecycline: iv blood sampling time point: 5 min, 15 min, 30 min, 1 h, 2 h, 4 h, 6 h, 8 h after administration; po blood sampling time point: 10 min, 30 min, 1 […] after administration. Each time point is taken around 100 μl whole blood and placed in a heparinized tube, centrifugated at 8000 rpm/min at 4° C. for 6 minutes in a low-temperature high-speed centrifuge to separate plasma, the resulting plasma was frozen at -80° C. refrigerator. Plasma samples analysis: 20 μl of plasma was taken and added 200 μl of internal standard solution, subjected to vortex for 3 minutes, then to centrifugation at 12,000 rpm/min for 5 minutes. 100 μl of supernatant was taken and analyzed using LC-MS/MS. Formula Absolute Bioavailability F%=[AUC](po)×Dose(iv)/[AUC](iv)×Dose(po)

The test system of data set [15] is Staphylococcus aureus. Put plainly: bactericidal effects in vivo in neutropenic mouse thigh model with Staphylococcus aureus infection. The conditions noted are these: for change values (24 h vs blank group mean 0 h) / log10 CFU for each thigh, mean ± standard deviations (24 h): 2 dose times, subcutaneous. Also noted: species or system mice. The procedure: Bactericidal Effects of the Present Compounds In Vivo in Mouse Thigh Model with Staphylococcus aureus Infection SPF grade CD-1 (ICR) female mice housed in SPF environment, weighing 25±2 g, purchased from Beijing Vital River Laboratory Animal Technology Co., Ltd., licensed […] No: SCXK (Beijing) 2006-0009. Staphylococcus aureus: purchased from Shanghai Renji Hospital. Four days before bacterial infection, intraperitoneal (ip) injection of cyclophosphamide 150 mg/kg; 1 day before bacterial infection, intraperitoneal (ip) injection of cyclophosphamide 100 mg/kg; Picked fresh Staphylococcus aureus single colonies which were plate cultured for 18 h, and inoculated into broth and cultured at 35° C. for 18 h. The bacterial suspension was diluted with broth, and 0.5 McFarland turbidity standard indicator bacteria suspension was prepared with a McFarland turbiditor, 10-fold diluted with broth and injected into the thigh muscle of mice in an amount of 0.1 mL for each thigh. The concentration of the bacteria suspension was about 10^6-10^7 CFU/ml. The inoculum concentration was determined by an agar-plate count method. Blank Group: the animals were sacrificed by dislocation at 2 h (recorded as 0 h) after the inoculation of bacteria. Solvent group: The first administration time was set at 2 h (denoted as 0 h) after the animals were infected with bacteria, the solvent was subcutaneously administrated, the animals were sacrificed by dislocation at 24 h after the administration. Treatment group: The first administration time was set at 2 h (denoted as 0 h). […] The thigh muscle tissue was separated from the sacrificed animals, and 5 mL of sodium chloride injection was added, homogenated. The homogenate obtained were diluted series, taken 0.05 mL and inoculated to agar plates, two plates were inoculated in parallel for each gradient bacterial suspension, and incubated at 35° C. for 18 h. Observe the growth of the colonies on each plate, and select the plates with the number of colonies between 30-300 for colony count. The number of colonies was recorded as n1, n2. N represents the diluted fold. The number of colonies (units CFU) for each thigh was calculated according to the formula of “(n1+n2)/2/0.05×5×N”. A logarithm to the base 10 for the number of colonies of each thigh was calculated to obtain log10 CFU value for each thigh.

[16] abbreviates: Table 5, MIC90 = 90% inhibitory concentration.

Values after ≈ are worked out from the molar mass of the structure shown. Where two headings read alike, the source gives them in different places.

For the compound `CN(C)c1cc(CNC2CC(F)(F)C2)c(O)c2c1C[C@H]1C[C@H]3[C@H](N(C)C)C(O)=C(C(N)=O)C(=O)[C@@]3(O)C(O)=C1C2=O` [Compound 2, (4S,4aS,5aR,12aS)-9-((3,3-difluorocyclobutylamino)methyl)-4,7-bis(dimethylamino)-3,10,12,12a-tetrahydroxy-1,1′-dioxo-1,4,4a,5,5a,6,11,12a-octahydrotetracene-2-carboxamide], the MIC in data set [1] (Table 2, agar dilution, read-out: antibacterial activity MIC, Acinetbacter baumannii) came to 0.5 µg/mL (≈ 0.867 µM); in [2] (Table 2) it was 1 µg/mL (≈ 1.73 µM); in [3] (Table 2, agar dilution), 0.5 µg/mL (≈ 0.867 µM); in data set [4] (Table 2), 4 µg/mL (≈ 6.94 µM); in data set [5], 0.125 µg/mL (≈ 0.217 µM); in data set [6], 0.25 µg/mL (≈ 0.434 µM). The AUC(0-inf) came to 2290 ng·h/mL in [7] (iv, 5 mg/kg) and 777 ng·h/mL in data set [7] (po (gavage), 5 mg/kg). Also, the clearance in data set [7] (iv, 5 mg/kg) is 37.2 mL/min/kg. For the same compound, the half-life is 4.07 h in data set [7] (iv, 5 mg/kg) and 2.32 h in [7] (po (gavage), 5 mg/kg). Further, in data set [7] (iv, 5 mg/kg, read-out: Vss), the Vd is 5.12 L/kg. Further, the bioavailability in data set [7] (po 5 mg/kg vs iv 5 mg/kg, read-out: F % (absolute bioavailability)) came out at 33.9%. Besides, the Cmax in data set [7] (po (gavage), 5 mg/kg) amounted to 251 ng/mL. For the same compound, the Tmax in data set [7] (po (gavage), 5 mg/kg) was determined as 1 h.
With `CN(C)c1cc(CN2CC3CC3C2)c(O)c2c1C[C@H]1C[C@H]3[C@H](N(C)C)C(O)=C(C(N)=O)C(=O)[C@@]3(O)C(O)=C1C2=O` (stereo partly drawn) [Compound 23, (4S,4aS,5aR,12aS)-9-(3-azabicyclo[3.1.0]hexan-3-ylmethyl)-4,7-bis(dimethylamino)-3,10,12,12a-tetrahydroxy-1,11-dioxo-1,4,4a,5,5a,6,11,12a-octahydrotetracene-2-carboxamide], the minimal inhibitory concentration (MIC) is 1 µg/mL (≈ 1.81 µM) in [1] (Table 4, agar dilution, read-out: antibacterial activity MIC, Acinetobacter baumannii); 0.25 µg/mL (≈ 0.452 µM) in data set [2] (Table 4); 0.06 µg/mL (≈ 0.109 µM) in [9]; 0.25 µg/mL (≈ 0.452 µM) in [3] (Table 4, agar dilution); 1 µg/mL (≈ 1.81 µM) in data set [4] (Table 4); 0.125 µg/mL (≈ 0.226 µM) in [10]. For the same compound, the MIC came out at 0.25 µg/mL (≈ 0.452 µM) in data set [11] (Table 10, Staphylococcus aureus of the thigh model) and 0.06 µg/mL (≈ 0.109 µM) in data set [13]. Moreover, the MIC90 in [1] (setting [16]) was determined as 2 µg/mL (≈ 3.62 µM); in data set [8], 0.5 µg/mL (≈ 0.905 µM); in data set [3] (setting [16]), 0.5 µg/mL (≈ 0.905 µM); in [11] (Staphylococcus aureus, Table 5, MIC90 = 90% inhibitory concentration) it was 0.25 µg/mL (≈ 0.452 µM); in data set [12] it was 0.125 µg/mL (≈ 0.226 µM). Further, the area under the curve AUC(0-inf) in data set [14] (iv) is 9110 ng·h/mL; in data set [14] (po), 2000 ng·h/mL. Moreover, the Vd in data set [14] (iv) was 5 L/kg. Also, in [14] (iv), the clearance was 9.33 mL/min/kg. This compound also showed a half-life in data set [14] (iv) of 9.94 h. The Cmax in data set [14] (po) was 199 ng/mL. Further, the Tmax in data set [14] (po) is 1 h. The compound also came in with a bioavailability in [14] (po) of 22%. For the same compound, the “change values (24 h vs blank group mean 0 h)” value in data set [15] (2 mg/kg/day) is listed as 1.28 log10 CFU; in data set [15] (6 mg/kg/day), −0.12 log10 CFU; in data set [15] (18 mg/kg/day), −2.04 log10 CFU. Moreover, the “log10 CFU for each thigh, mean ± standard deviations (24 h)” value was found to be 7.67 ± 0.17 log10 CFU in data set [15] (2 mg/kg/day), 6.27 ± 0.41 log10 CFU in data set [15] (6 mg/kg/day) and 4.35 ± 0.45 log10 CFU in [15] (18 mg/kg/day). Besides, the “bacteria reducing value of each thigh” value in [15] (6 mg/kg/day) was determined as 0.12. In addition, the “bactericidal effect against Staphylococcus aureus in vivo in mice” value in [15] (6 mg/kg/day) was “had bactericidal effect”.

A word on the MIC: it is the lowest concentration found to suppress growth. One may read the AUC(0-inf) as the area under the concentration-time curve extrapolated to infinity. Higher therefore signals high exposure. What is called clearance is the volume of plasma or blood freed of the substance per unit of time. A word on the half-life: it is the time in which the quantity being followed falls by half. Low readings indicate fast loss, high ones slow loss. In general, bioavailability refers to dose-corrected exposure relative to a reference, in per cent. As a reminder, the Cmax is the peak of the concentration-time curve. As usually defined, the Tmax is the time at which the peak concentration occurs.
